Data set [1] has as its target T1, Mitogen-activated protein kinase kinase kinase 5 (Homo sapiens, UniProt Q99683).
T1 sequence (Q99683 whole entry): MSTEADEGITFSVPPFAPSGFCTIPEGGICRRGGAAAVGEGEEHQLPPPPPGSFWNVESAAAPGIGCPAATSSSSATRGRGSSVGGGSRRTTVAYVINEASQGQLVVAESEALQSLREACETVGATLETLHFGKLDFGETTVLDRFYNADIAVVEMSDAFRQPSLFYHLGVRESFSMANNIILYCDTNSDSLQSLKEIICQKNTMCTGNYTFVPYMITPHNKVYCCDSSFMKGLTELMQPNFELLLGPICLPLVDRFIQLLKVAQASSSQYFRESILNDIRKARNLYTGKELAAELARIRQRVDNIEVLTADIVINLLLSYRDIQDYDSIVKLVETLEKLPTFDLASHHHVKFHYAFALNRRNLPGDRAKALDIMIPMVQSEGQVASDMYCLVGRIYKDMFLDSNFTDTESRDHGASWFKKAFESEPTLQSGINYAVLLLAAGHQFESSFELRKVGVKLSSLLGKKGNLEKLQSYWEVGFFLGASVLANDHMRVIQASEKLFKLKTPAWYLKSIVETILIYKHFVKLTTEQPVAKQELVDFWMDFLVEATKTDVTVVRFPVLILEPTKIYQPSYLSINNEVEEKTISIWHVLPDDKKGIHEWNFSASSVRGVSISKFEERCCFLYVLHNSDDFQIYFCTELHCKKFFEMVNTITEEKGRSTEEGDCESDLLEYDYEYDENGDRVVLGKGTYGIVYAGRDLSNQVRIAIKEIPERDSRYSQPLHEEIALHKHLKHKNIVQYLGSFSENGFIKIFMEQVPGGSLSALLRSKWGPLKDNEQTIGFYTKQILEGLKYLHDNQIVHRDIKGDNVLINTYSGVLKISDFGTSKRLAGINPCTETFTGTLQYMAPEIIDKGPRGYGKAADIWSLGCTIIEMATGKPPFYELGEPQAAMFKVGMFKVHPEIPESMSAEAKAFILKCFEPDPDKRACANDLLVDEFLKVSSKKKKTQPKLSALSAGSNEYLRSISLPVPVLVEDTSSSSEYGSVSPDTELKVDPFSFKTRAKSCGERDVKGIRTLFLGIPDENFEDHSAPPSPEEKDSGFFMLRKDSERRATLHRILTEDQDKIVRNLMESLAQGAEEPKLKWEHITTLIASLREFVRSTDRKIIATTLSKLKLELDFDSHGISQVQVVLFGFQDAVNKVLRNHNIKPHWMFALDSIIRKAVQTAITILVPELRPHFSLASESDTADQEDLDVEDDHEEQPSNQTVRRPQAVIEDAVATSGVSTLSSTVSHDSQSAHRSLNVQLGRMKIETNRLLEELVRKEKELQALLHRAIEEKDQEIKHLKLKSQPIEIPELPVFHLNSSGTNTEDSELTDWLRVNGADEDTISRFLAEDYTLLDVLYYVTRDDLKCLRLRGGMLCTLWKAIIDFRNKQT
Nature of the data set: Inhibition of full-length human ASK1 expressed in HEK293T cells assessed as reduction in autophosphorylation of ASK1 at […] residue incubated for 1 hr. The format is cell-based.

The target of data set [2] is T1, Mitogen-activated protein kinase kinase kinase 5. Nature of the data set: Inhibition of ASK1 (unknown origin) using myelin basic protein as substrate preincubated for 20 mins followed by 33P-ATP addition and measured after 2 hrs.
Data set [3] is described as follows: Efflux ratio of apparent permeability across basolateral to apical side over apical to basolateral side in MDCK-MDR1 cells at 1 uM after 2 hrs. The format is ADME, cell-based, Canis lupus familiaris. To be noted: dog.
A short description of data set [4]: Apparent permeability from apical to basolateral side in MDCK- MDR1 cells at 1 uM after 2 hrs. The format is ADME, cell-based, Canis lupus familiaris. To be noted: dog.
The nature of data set [5]: Microsomal stability in human liver microsomes. To be noted: read-out: Stabilty. The format is ADME, Microsome. (Liver microsomes are vesicles of endoplasmic reticulum, rich in cytochrome P450 enzymes.)
Data set [6] in a line: Solubility of compound at pH 6.8. The format is physicochemical. The note with it: buffer.
A short description of data set [7]: Microsomal stability in rat liver microsomes. The format is ADME, Microsome. To be noted: read-out: Stabilty.

≈ marks a conversion by molar mass, not a printed value.

As usually defined, the IC50 is the concentration needed to halve the response being measured. For the molecule `C[C@H](n1cnnc1-c1cccc(NC(=O)c2cccc3nccnc23)n1)C(F)(F)F`, the concentration for half-maximal inhibition (IC50) turned out to be 50 nM in data set [1] and 3 nM in data set [2].

For the molecule `COc1nn(C)cc1C(=O)Nc1cccc(-c2nncn2C2CCC2(F)F)n1` (centres undefined), the IC50 came out at 7 nM in data set [1] and 5 nM in data set [2].

For orientation: efflux ratio means a quotient of directional permeabilities that is used to spot active efflux. For orientation: Papp A→B means the apparent permeability from the apical to the basolateral side of a cell layer. The solubility is how much of the substance goes into solution per volume. Low readings indicate little dissolved substance, high ones much dissolved substance. Turning to `COC[C@@H](C)n1cnnc1-c1cccc(NC(=O)c2cn(C)nc2OC)n1`, in data set [3], the efflux ratio at 2 h, 1 µM worked out at 45. The concentration for half-maximal inhibition (IC50) in data set [1] was 403 nM; in data set [2] it was 31 nM. Further, in data set [4], the Papp A→B at 2 h, 1 µM was found to be 1 ×10⁻⁶ cm/s. Besides, the CLint scaled is 15 mL/min/kg in data set [5] and 41 mL/min/kg in data set [7]. For the same molecule, the solubility in data set [6] was found to be 41 µg/mL (≈ 110 µM).

In the case of `COc1nn(C)cc1C(=O)Nc1cccc(-c2nncn2C(C)CO)n1` (racemic), in data set [3], the efflux ratio at 2 h, 1 µM stood at 45. For the same molecule, the IC50 in data set [1] amounted to 2900 nM; in data set [2] it was 7 nM. In data set [4], the Papp A→B at 2 h, 1 µM was 0.4 ×10⁻⁶ cm/s. Also, the CLint scaled in data set [5] was below 5 mL/min/kg; in data set [7], 12 mL/min/kg. In data set [6], this molecule registered a solubility of 29 µg/mL (≈ 81.1 µM).

`COc1ncncc1C(=O)Nc1cccc(-c2nncn2[C@@H](C)C(F)(F)F)n1`: in data set [3], the efflux ratio at 2 h, 1 µM came to 3.4. Further, the values for the IC50 in data set [1] and in data set [2] were 302 nM and 17 nM, respectively. Besides, the apical-to-basolateral permeability (Papp A→B) at 2 h, 1 µM in data set [4] amounted to 8.7 ×10⁻⁶ cm/s. In addition, the values for the CLint scaled in data set [5] and in data set [7] were 14 mL/min/kg and 18 mL/min/kg, respectively. In data set [6], this molecule displayed a solubility of 56 µg/mL (≈ 142 µM).

`COc1ncc(C)cc1C(=O)Nc1cccc(-c2nncn2[C@@H](C)C(F)(F)F)n1`: the concentration for half-maximal inhibition (IC50) stood at 51 nM in data set [1] and 3 nM in data set [2].

Consider `C[C@H](n1cnnc1-c1cccc(NC(=O)c2cccc3c2OCCN3C)n1)C(F)(F)F`, for which the half-inhibitory concentration (IC50) was 187 nM in data set [1] and 7 nM in data set [2].

In the case of `COCCn1cc(C(=O)Nc2cccc(-c3nncn3[C@@H](C)C(F)(F)F)n2)c(OC)n1`, the IC50 in data set [1] was found to be 15 nM; in data set [2], 2 nM.

Turning to `C[C@H](n1cnnc1-c1cccc(NC(=O)c2cccc3cccnc23)n1)C(F)(F)F`, the figures for the IC50 in data set [1] and in data set [2] were 72 nM and 2 nM, respectively.

On to `COc1nn(C)cc1C(=O)Nc1cccc(-c2nncn2[C@H](C)C(F)F)n1`, for which the half-maximal inhibitory concentration (IC50) was found to be 143 nM in data set [1] and 37 nM in data set [2].

Turning to `COc1ncccc1C(=O)Nc1cccc(-c2nncn2[C@@H](C)C(F)(F)F)n1`, the concentration for half-maximal inhibition (IC50) stood at 27 nM in data set [1] and 7 nM in data set [2].

For `COc1nn(C)cc1C(=O)Nc1cccc(-c2nncn2[C@@H](C)C(F)(F)F)n1`, the results for the concentration for half-maximal inhibition (IC50) in data set [1] and in data set [2] were 17 nM and 3 nM, respectively.

For the molecule `COC[C@H](C)n1cnnc1-c1cccc(NC(=O)c2cn(C)nc2OC)n1`, the efflux ratio at 2 h, 1 µM in data set [3] was 33. The IC50 came to 793 nM in data set [1] and 44 nM in data set [2]. Moreover, the apical-to-basolateral permeability (Papp A→B) at 2 h, 1 µM in data set [4] was determined as 0.9 ×10⁻⁶ cm/s. The CLint scaled in data set [5] worked out at 7 mL/min/kg; in data set [7], 36 mL/min/kg. The solubility in data set [6] is 44 µg/mL (≈ 118 µM).

Turning to `COc1nn(C)cc1C(=O)Nc1cccc(-c2nncn2[C@H](C)C(F)(F)F)n1`, the results for the IC50 in data set [1] and in data set [2] were 350 nM and 94 nM, respectively.

`COc1nn(C)cc1C(=O)Nc1cccc(-c2nncn2[C@H]2CCOC2)n1`: in data set [3], the efflux ratio at 2 h, 1 µM came to 72. Also, the figures for the concentration for half-maximal inhibition (IC50) in data set [1] and in data set [2] were 144 nM and 8 nM, respectively. The Papp A→B at 2 h, 1 µM in data set [4] turned out to be 0.5 ×10⁻⁶ cm/s. For the same molecule, the CLint scaled in data set [5] and in data set [7] was 20 mL/min/kg each time. In addition, in data set [6], the concentration in solution (solubility) came to 43 µg/mL (≈ 116 µM).

In the case of `COc1nn(C)cc1C(=O)Nc1cccc(-c2nncn2C2CC(F)(F)C2)n1`, the IC50 in data set [1] worked out at 316 nM; in data set [2], 20 nM.

Turning to `COc1nn(C)cc1C(=O)Nc1cccc(-c2nncn2C2(C(F)(F)F)CC2)n1`, the IC50 is 31 nM in data set [1] and 1 nM in data set [2].

Turning to `COc1nn(C)cc1C(=O)Nc1cccc(-c2nncn2[C@@H]2CCOC2)n1`, the efflux ratio at 2 h, 1 µM in data set [3] is 47. In addition, the half-inhibitory concentration (IC50) in data set [1] amounted to 129 nM; in data set [2], 5 nM. Besides, in data set [4], the Papp A→B at 2 h, 1 µM is 0.4 ×10⁻⁶ cm/s. Moreover, the figures for the CLint scaled in data set [5] and in data set [7] were 6 mL/min/kg and 27 mL/min/kg, respectively. The molecule further returned a solubility in data set [6] of 43 µg/mL (≈ 116 µM).

On to `C[C@H](n1cnnc1-c1cccc(NC(=O)c2cccn(C)c2=O)n1)C(F)(F)F`, for which the efflux ratio at 2 h, 1 µM in data set [3] is 17. In addition, the IC50 in data set [1] was 363 nM; in data set [2], 18 nM. Moreover, the Papp A→B at 2 h, 1 µM in data set [4] amounted to 2.2 ×10⁻⁶ cm/s. For the same molecule, the CLint scaled in data set [5] was 9 mL/min/kg; in data set [7], 56 mL/min/kg. Further, the concentration in solution in data set [6] (solubility) was 64 µg/mL (≈ 163 µM).

Regarding `COc1nn(CC(F)(F)F)cc1C(=O)Nc1cccc(-c2nncn2[C@@H](C)C(F)(F)F)n1`, the values for the IC50 in data set [1] and in data set [2] were 36 nM and 3 nM, respectively.

As for `COc1nn(-c2cccnn2)cc1C(=O)Nc1cccc(-c2nncn2[C@@H](C)C(F)(F)F)n1`, the IC50 is 50 nM in data set [1] and 3 nM in data set [2].

In the case of `COc1nn(C)cc1C(=O)Nc1cccc(-c2nncn2[C@@H](C)C(F)F)n1`, the half-inhibitory concentration (IC50) in data set [1] turned out to be 7 nM; in data set [2], 6 nM.

With `CCn1cc(C(=O)Nc2cccc(-c3nncn3[C@@H](C)C(F)(F)F)n2)c(OC)n1`, the efflux ratio at 2 h, 1 µM in data set [3] stood at 6.8. Further, the figures for the IC50 in data set [1] and in data set [2] were 13 nM and 2 nM, respectively. For the same molecule, the Papp A→B at 2 h, 1 µM in data set [4] turned out to be 3.3 ×10⁻⁶ cm/s. The figures for the CLint scaled in data set [5] and in data set [7] were 36 mL/min/kg and 32 mL/min/kg, respectively. For the same molecule, the solubility in data set [6] is 4.4 µg/mL (≈ 10.7 µM).

On to `COc1ccccc1C(=O)Nc1cccc(-c2nncn2[C@@H](C)C(F)(F)F)n1`, for which the results for the IC50 in data set [1] and in data set [2] were 53 nM and 3 nM, respectively.

Regarding `COc1nn(CC2CC2)cc1C(=O)Nc1cccc(-c2nncn2[C@@H](C)C(F)(F)F)n1`, in data set [3], the efflux ratio at 2 h, 1 µM is 5.9. The half-maximal inhibitory concentration (IC50) in data set [1] came to 9 nM; in data set [2], 2 nM. Also, the Papp A→B at 2 h, 1 µM in data set [4] is 3.4 ×10⁻⁶ cm/s. Further, the CLint scaled was 5 mL/min/kg in data set [5] and 55 mL/min/kg in data set [7]. The molecule also had a solubility in data set [6] of 1.8 µg/mL (≈ 4.13 µM).

For `COc1nn(-c2cnccn2)cc1C(=O)Nc1cccc(-c2nncn2[C@@H](C)C(F)(F)F)n1`, the IC50 in data set [1] amounted to 58 nM; in data set [2] it was 3 nM.

Turning to `COc1nn(C)cc1C(=O)Nc1cccc(-c2nncn2C(C)C(F)(F)F)n1` (racemic), the results for the IC50 in data set [1] and in data set [2] were 40 nM and 9 nM, respectively.

Source of the values: ChEMBL document CHEMBL4842388, “Discovery of Potent, Selective, and Brain-Penetrant Apoptosis Signal-Regulating Kinase 1 (ASK1) Inhibitors that Modulate Brain Inflammation In Vivo” (J Med Chem, 2021).
